The results in this text go back to ChEMBL document CHEMBL4477213, “Discovery and Optimization of Quinazolinone-pyrrolopyrrolones as Potent and Orally Bioavailable Pan-Pim Kinase Inhibitors” (J Med Chem, 2016).

Structures are written as SMILES.

Data set [1] relates to Mus musculus. The experiment in a line: In vivo inhibition of pan Pim in SCID-bg mouse xenografted with human KMS-12-BM cells assessed as phosphorylation of BAD peptide at Serine 112 residue at 50 mg/kg, po qd measured at 24 hrs post dose relative to control. The data set is classed as functional. On the set-up: scale not given: the % may be the effect or the level left.
The target in data set [2] is T1, Mitogen-activated protein kinase 12 (Homo sapiens) (UniProt P53778).
T1 sequence (whole entry): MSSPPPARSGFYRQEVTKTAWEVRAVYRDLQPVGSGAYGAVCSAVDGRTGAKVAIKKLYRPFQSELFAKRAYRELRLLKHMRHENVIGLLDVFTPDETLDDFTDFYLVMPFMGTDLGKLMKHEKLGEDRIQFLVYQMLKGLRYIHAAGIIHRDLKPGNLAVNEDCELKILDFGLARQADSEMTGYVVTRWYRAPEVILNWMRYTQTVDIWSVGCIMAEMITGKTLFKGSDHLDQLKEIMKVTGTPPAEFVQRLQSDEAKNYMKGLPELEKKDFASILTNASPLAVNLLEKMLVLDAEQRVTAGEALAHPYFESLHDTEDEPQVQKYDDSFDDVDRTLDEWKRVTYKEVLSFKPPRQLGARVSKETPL
Description: Inhibition of full length human p38-gamma expressed in bacterial system assessed as remaining enzyme activity at 1 uM by KINOMEScan assay relative to control.

The target in data set [3] is Casein kinase II subunit alpha (Homo sapiens) (UniProt P68400). The experiment in a line: Inhibition of full length human CSNK2A1 expressed in mammalian system assessed as remaining enzyme activity at 1 uM by KINOMEScan assay relative to control.
Data set [4] has as its target T2, Mitogen-activated protein kinase kinase kinase 19 (Homo sapiens) (UniProt Q56UN5).
T2 sequence (whole entry): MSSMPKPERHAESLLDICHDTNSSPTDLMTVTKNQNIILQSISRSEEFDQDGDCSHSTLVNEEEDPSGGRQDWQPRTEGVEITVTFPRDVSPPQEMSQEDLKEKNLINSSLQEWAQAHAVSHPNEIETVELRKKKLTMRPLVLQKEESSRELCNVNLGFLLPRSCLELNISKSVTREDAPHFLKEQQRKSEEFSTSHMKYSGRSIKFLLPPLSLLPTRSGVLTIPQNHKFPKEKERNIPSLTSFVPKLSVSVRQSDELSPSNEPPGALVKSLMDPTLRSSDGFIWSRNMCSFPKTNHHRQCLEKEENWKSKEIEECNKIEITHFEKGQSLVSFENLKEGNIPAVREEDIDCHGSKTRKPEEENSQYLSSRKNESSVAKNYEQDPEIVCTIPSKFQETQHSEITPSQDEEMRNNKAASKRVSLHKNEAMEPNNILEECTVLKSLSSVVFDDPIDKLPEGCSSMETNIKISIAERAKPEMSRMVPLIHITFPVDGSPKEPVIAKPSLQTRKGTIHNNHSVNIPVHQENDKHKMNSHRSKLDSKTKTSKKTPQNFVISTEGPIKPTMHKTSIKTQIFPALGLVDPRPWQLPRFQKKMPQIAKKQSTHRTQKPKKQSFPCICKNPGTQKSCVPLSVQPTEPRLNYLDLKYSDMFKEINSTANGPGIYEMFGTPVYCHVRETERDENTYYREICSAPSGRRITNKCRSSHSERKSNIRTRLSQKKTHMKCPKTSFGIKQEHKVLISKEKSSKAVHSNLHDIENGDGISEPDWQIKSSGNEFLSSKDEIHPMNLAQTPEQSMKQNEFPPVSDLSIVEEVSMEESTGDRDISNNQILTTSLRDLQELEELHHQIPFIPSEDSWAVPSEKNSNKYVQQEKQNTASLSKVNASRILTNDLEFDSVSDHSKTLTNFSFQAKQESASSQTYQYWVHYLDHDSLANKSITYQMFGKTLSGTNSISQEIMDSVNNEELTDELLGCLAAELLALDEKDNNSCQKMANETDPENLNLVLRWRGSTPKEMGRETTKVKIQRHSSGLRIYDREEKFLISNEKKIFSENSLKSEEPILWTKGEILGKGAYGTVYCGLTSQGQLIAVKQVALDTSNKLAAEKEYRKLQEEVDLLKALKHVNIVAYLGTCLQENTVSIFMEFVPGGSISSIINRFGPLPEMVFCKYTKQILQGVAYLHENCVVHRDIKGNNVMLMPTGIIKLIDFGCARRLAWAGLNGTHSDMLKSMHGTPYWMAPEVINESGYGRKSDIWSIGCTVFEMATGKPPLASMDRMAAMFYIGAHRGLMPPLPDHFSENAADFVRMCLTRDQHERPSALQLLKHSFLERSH
The experiment in a line: Inhibition of human YSK4 (1019 to 1328 residues) expressed in mammalian system assessed as remaining enzyme activity at 1 uM by KINOMEScan assay relative to control.

The test system of data set [5] is KMS-12-BM. The experiment in a line: Antitumor activity against human KMS-12-BM cells xenografted in SCID-bg mouse assessed as tumor growth inhibition at 10 mg/kg, po qd measured twice per week. The data set is classed as functional. The note with it: read-out: TGI. (In general: In xenograft studies the graft and the host belong to different species.)
Data set [6] deals with Mus musculus. Description: In vivo inhibition of pan Pim in SCID-bg mouse xenografted with human KMS-12-BM cells assessed as phosphorylation of BAD peptide at Serine 112 residue at 10 mg/kg, po qd measured at 24 hrs post dose relative to control. In kind it is functional. On the set-up: scale not given: the % may be the effect or the level left.
Data set [7] deals with Mus musculus. Description: In vivo inhibition of pan Pim in SCID-bg mouse xenografted with human KMS-12-BM cells assessed as phosphorylation of BAD peptide at Serine 112 residue at 100 mg/kg, po qd measured at 24 hrs post dose relative to control. In kind it is functional. Further details: scale not given: the % may be the effect or the level left.
Data set [8] relates to Mus musculus. Description: In vivo inhibition of pan Pim in SCID-bg mouse xenografted with human KMS-12-BM cells assessed as phosphorylation of BAD peptide at Serine 112 residue at 50 mg/kg, po qd measured at 1 hr post dose relative to control. In kind it is functional. On the set-up: scale not given: the % may be the effect or the level left.
A short description of data set [9]: Fraction unbound in mouse plasma. The data set is classed as ADME, cell-free.
A short description of data set [10]: Apparent permeability in pig LLC-PK1 cells. In kind it is ADME, cell-based, Sus scrofa.
Data set [11] relates to KMS-12-BM. Description: Antitumor activity against human KMS-12-BM cells xenografted in po dosed SCID-bg mouse assessed as tumor growth inhibition administered once daily measured twice per week. The data set is classed as functional, organism-based.
Data set [12] has as its system Mus musculus. Description: In vivo inhibition of pan Pim in SCID-bg mouse xenografted with human KMS-12-BM cells assessed as phosphorylation of BAD peptide at Serine 112 residue at 25 mg/kg, po qd measured at 12 hrs post dose relative to control. In kind it is functional. Further details: scale not given: the % may be the effect or the level left.
The nature of data set [13]: Oral bioavailability in dog. The data set is classed as ADME, organism-based, Canis lupus familiaris. The note with it: in vivo.
Data set [14] addresses Dual specificity tyrosine-phosphorylation-regulated kinase 1A (Homo sapiens) (UniProt Q13627). The experiment in a line: Inhibition of human DYRK1A (129 to 509 residues) expressed in mammalian system assessed as remaining enzyme activity at 1 uM by KINOMEScan assay relative to control.
Data set [15] has as its system Mus musculus. The experiment in a line: In vivo inhibition of pan Pim in SCID-bg mouse xenografted with human KMS-12-BM cells assessed as phosphorylation of BAD peptide at Serine 112 residue at 50 mg/kg, po qd measured at 4 hrs post dose relative to control. Further details: scale not given: the % may be the effect or the level left. In kind it is functional.
Data set [16] concerns Mus musculus. The experiment in a line: In vivo inhibition of pan Pim in SCID-bg mouse xenografted with human KMS-12-BM cells assessed as phosphorylation of BAD peptide at Serine 112 residue at 100 mg/kg, po qd measured at 12 hrs post dose relative to control. The data set is classed as functional. Further details: scale not given: the % may be the effect or the level left.

Sequence of Casein kinase II subunit alpha (Homo sapiens) (P68400 whole entry, looked up): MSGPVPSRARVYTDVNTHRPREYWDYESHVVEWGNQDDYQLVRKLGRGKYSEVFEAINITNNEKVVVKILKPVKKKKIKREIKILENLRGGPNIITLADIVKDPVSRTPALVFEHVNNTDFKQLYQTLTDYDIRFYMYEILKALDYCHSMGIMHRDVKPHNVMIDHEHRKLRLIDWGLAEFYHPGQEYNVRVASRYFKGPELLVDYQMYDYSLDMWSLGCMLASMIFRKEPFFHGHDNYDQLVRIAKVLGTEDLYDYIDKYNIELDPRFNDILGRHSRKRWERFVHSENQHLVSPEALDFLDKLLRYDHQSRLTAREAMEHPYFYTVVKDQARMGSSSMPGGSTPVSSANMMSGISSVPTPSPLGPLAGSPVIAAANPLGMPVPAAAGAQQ

`C[C@H]1NC(=O)c2cc(-c3cccc4c(=O)n(C)c(NC(C)(C)C)nc34)[nH]c21`: the Activity in data set [1] came to 10%; in data set [2] it was 0.9%; in data set [3] it was 3.5%; in data set [4] it was 0.4%; in data set [6], 0%; in data set [7], 21%. Moreover, the Activity is 61% in data set [8]; 37% in [12]; 6% in data set [14]; 66% in [15]; 66% in data set [16]. The inhibition in vivo at 10 mg/kg in data set [5] is 30%. Also, in data set [9], the “Cp(f)” value was 21.4 nM. Moreover, the Papp (commonly a coefficient for how fast a substance crosses the barrier) in data set [10] worked out at 44 ×10⁻⁶ cm/s. Further, the TGI entry in data set [11] is “Dose-dependent effect”. Moreover, in data set [13], the bioavailability – broadly, the share of a dose that reaches the circulation, judged against a reference dose that is usually intravenous – turned out to be 44%.
